Source: patent US8003704B2, “Methods and compositions for the treatment of alcoholism and alcohol dependence” (priority 2000, dated 2011)

Key:
Assay type in all cases: biochemical
[1] = target: T1, low Km AlDH from rat liver (Rattus norvegicus, UniProt P11884); assay: Inhibition of mammalian mitochondrial (low Km) AlDH in rat liver preparation; details: Example 4, rat liver low Km AlDH, 5 μM acetaldehyde
T1 construct: using a preparation from rat liver containing both Low Km and high Km AlDH; from tissue; host or cells: rat liver preparation
T1 sequence (P11884 20-519): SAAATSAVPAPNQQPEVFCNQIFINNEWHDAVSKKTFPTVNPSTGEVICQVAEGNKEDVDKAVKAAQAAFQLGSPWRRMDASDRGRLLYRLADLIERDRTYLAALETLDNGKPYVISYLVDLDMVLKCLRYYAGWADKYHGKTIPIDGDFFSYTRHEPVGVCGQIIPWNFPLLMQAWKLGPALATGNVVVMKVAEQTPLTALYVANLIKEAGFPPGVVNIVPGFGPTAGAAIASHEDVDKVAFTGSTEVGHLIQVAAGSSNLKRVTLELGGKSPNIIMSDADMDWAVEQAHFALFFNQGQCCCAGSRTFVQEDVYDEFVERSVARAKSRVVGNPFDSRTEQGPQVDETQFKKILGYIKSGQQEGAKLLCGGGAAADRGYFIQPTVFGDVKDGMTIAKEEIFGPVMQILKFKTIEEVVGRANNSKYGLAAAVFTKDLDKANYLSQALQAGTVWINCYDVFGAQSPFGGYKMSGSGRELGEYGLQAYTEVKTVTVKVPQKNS
Protocol: Experiments were therefore performed using a preparation from rat liver in which both the low Km and the high Km enzymes can be measured simultaneously, but at different substrate (acetaldehyde) concentrations, namely, 5 μM for the low Km and 5 mM for the high Km, enzyme.

[2] = target: T1, low Km AlDH from rat liver; assay: as above; details: Example 3, preliminary results, 2 μM concentration
[3] = test system: AlDH of bacterial sources; assay: Screening of tryptophan metabolites for inhibition of bacterial AlDH activity in vitro; details: for % inhibition of AlDH activity: 100 μM concentration, in vitro
Protocol: Tryptophan and its various metabolites were tested for possible inhibition of activity of AlDH of bacterial sources. The terms “inhibitor of AlDH activity” and the like mean that the activity of AlDH in vivo in the presence of the inhibitor is reduced. In practice, this may be predicted by reference to the inhibitory activity of the compound or composition in vitro.
An enzyme preparation was purchased from Sigma, (Poole, Dorset, UK) and was used for the screening of tryptophan and its metabolites. A number of preliminary experiments were performed to optimise the conditions of the assay, which was performed according to standard experimental conditions published in the literature and well known to those skilled in the art. All assays were performed in triplicate or quadruplicate determinations for both controls (no additions) and tryptophan metabolites.
Tryptophan and its metabolites were first tested at a 100 μM concentration. The tryptophan metabolites screened included the following: […]

For `Nc1c(O)cccc1C(=O)O` [3-hydroxyanthranilic acid], the “inhibition of activity of the low Km enzyme” value ([1]; 2 μM concentration) was 46%, the “inhibition of activity of the low Km enzyme” value ([1]; 10 μM concentration) was 54% and the “inhibition of activity of the low Km enzyme” value ([1]; 100 μM concentration) was 76%. For the same compound, the “inhibition of the mammalian low km enzyme” value [2] was 46%, the “inhibition of bacterial AlDH activity” value ([3]; 2 μM concentration) was 3% and the “inhibition of bacterial AlDH activity” value ([3]; 10 μM concentration) was 17%. For the same compound, the “% inhibition of AlDH activity” value [3] was 97%.
`Nc1c(O)cccc1C(=O)CC(N)C(=O)O` (stereo not drawn) [3-hydroxykynurenine] was tested, and the “inhibition of activity of the low Km enzyme” value ([1]; 2 μM concentration) was 55%, the “inhibition of activity of the low Km enzyme” value ([1]; 10 μM concentration) was 52% and the “inhibition of activity of the low Km enzyme” value ([1]; 100 μM concentration) was 69%. The “inhibition of the mammalian low km enzyme” value [2] was 65%, the “inhibition of bacterial AlDH activity” value ([3]; 2 μM concentration) was “+1%” and the “inhibition of bacterial AlDH activity” value ([3]; 10 μM concentration) was 55%. The “% inhibition of AlDH activity” value [3] was 97%.
With `O=C(O)Cc1c[nH]c2ccc(O)cc12` [5-hydroxyindol-3-ylacetic acid] the “% inhibition of AlDH activity” value [3] was 4%.
For `NCCc1c[nH]c2ccc(O)cc12` [5-hydroxytryptamine], the “% inhibition of AlDH activity” value [3] was 15%.
For `OCCc1c[nH]c2ccc(O)cc12` [5-hydroxytryptophol], the “% inhibition of AlDH activity” value [3] was 7%.
`N[C@@H](Cc1c[nH]c2ccc(O)cc12)C(=O)O` [5-hydroxytrytophan] was tested, and the “% inhibition of AlDH activity” value [3] was 23%.
`Nc1ccccc1C(=O)O` [anthranilic acid] was tested, and the “% inhibition of AlDH activity” value [3] was 9%.
With `CCN(CC)C(=S)SSC(=S)N(CC)CC` [disulfiram, reference compound] the “inhibition of activity of the low Km enzyme” value ([1]; 2 μM concentration) was 30-46%, the “inhibition of activity of the low Km enzyme” value ([1]; 10 μM concentration) was 38-43% and the “inhibition of activity of the low Km enzyme” value ([1]; 100 μM concentration) was 46-50%. The “inhibition of the mammalian low km enzyme” value [2] was 30-46%.
With `O=CCc1c[nH]c2ccccc12` [indol-3-ylacetaldehyde] the “% inhibition of AlDH activity” value [3] was 55%.
For `O=C(O)Cc1c[nH]c2ccccc12` [indol-3-ylacetic acid], the “% inhibition of AlDH activity” value [3] was 11%.
In the case of `O=C(O)C(=O)Cc1c[nH]c2ccccc12` [indol-3-ylpyruvic acid], the “inhibition of activity of the low Km enzyme” value ([1]; 2 μM concentration) was 30%, the “inhibition of activity of the low Km enzyme” value ([1]; 10 μM concentration) was 38% and the “inhibition of activity of the low Km enzyme” value ([1]; 100 μM concentration) was 53%. For the same compound, the “inhibition of the mammalian low km enzyme” value [2] was 37%, the “inhibition of bacterial AlDH activity” value ([3]; 2 μM concentration) was 24% and the “inhibition of bacterial AlDH activity” value ([3]; 10 μM concentration) was 29%. The “% inhibition of AlDH activity” value [3] was 94%.
`O=C(O)c1cc(=O)c2ccccc2[nH]1` [kynurenic acid] was tested, and the “inhibition of activity of the low Km enzyme” value ([1]; 2 μM concentration) was 40%, the “inhibition of activity of the low Km enzyme” value ([1]; 10 μM concentration) was 43% and the “inhibition of activity of the low Km enzyme” value ([1]; 100 μM concentration) was 43%. The “inhibition of the mammalian low km enzyme” value [2] was 30%, the “inhibition of bacterial AlDH activity” value ([3]; 2 μM concentration) was 5% and the “inhibition of bacterial AlDH activity” value ([3]; 10 μM concentration) was 30%. For the same compound, the “% inhibition of AlDH activity” value [3] was 90%.
`Nc1ccccc1C(=O)CC(N)C(=O)O` (stereo not drawn) [kynurenine] was tested, and the “% inhibition of AlDH activity” value [3] was 24%.
In the case of `NC(=O)c1cccnc1` [nicotinamide], the “% inhibition of AlDH activity” value [3] was 7%.
With `c1ccc2c(c1)[nH]c1cnccc12` [norharman] the “% inhibition of AlDH activity” value [3] was 23%.
For `O=C(O)c1ccc2ccccc2n1` [quinaldic acid], the “% inhibition of AlDH activity” value [3] was 7%.
With `O=C(O)c1cccnc1C(=O)O` [quinolinic acid] the “% inhibition of AlDH activity” value [3] was 13%.
With `NCCc1c[nH]c2ccccc12` [tryptamine] the “% inhibition of AlDH activity” value [3] was 0%.
In the case of `N[C@@H](Cc1c[nH]c2ccccc12)C(=O)O` [tryptophan], the “% inhibition of AlDH activity” value [3] was 2%.
For `O=C(O)c1cc(O)c2cccc(O)c2n1` [xanthurenic acid], the “% inhibition of AlDH activity” value [3] was 56%.
`O=C(O)CCCC(=O)C(=O)O` [α-ketoadipic acid] was tested, and the “% inhibition of AlDH activity” value [3] was 1%.
